Measurements as given in patent US6776984B1, “Induced regeneration and repair of damaged neurons and nerve axon myelin” (priority 1999, dated 2004).

Test system: B6SJL-TgN(SOD1-G93A)1 Gur strain mice
Experiment: Transgenic mouse model of familial amyotrophic lateral sclerosis (limb paralysis, survival)
Assay type: in vivo
Text: B6SJL-TgN(SOD1-G93A)1 Gur strain mice were obtained from. The Jackson Laboratory, Bar Harbor, Me. The transgene in these mice carries a high copy number of a mutant allele human SOD1 containing the Gly93 →Ala (G93A) substitution (often referred to as G1H). Mice progressively become paralyzed in one or more limbs, with paralysis due to loss of motor neurons from the spinal cord. The mice are generally described in Gurney M E, Pu H, Chiu A Y, Dal Canto M C, Polchow C Y, Alexander D D, Caliendo J, Hentati A, Kwon Y W, Deng H X, Chen W, Zhai P, Sufit R L, Siddique T: Motor neuron degeneration in mice that express a human Cu,Zn superoxide dismutase mutation. Science 264:1772-1775 (1994), and use of these mice as a model of familial amyotrophic lateral sclerosis is described in Chiu A Y, Zhai P, Dal Canto M C, Peters T M, Kwon Y W, Prattis S M, Gurney M E: Age-dependent penetrance of disease in a transgenic mouse model of familial amyotrophic lateral sclerosis. Mol Cell Neurosci 6:349-362 (1995).
At 105 days following birth, mouse A began manifesting objective symptoms of limb paralysis. A protocol as described in Table 1 was followed.
The thrombopoietin was obtained from Rand D. Systems, Inc. (Minneapolis, Minn.) as carrier-free recombinant thrombopoietin and the thryrotropin was obtained from Ferring Pharmaceuticals; both were administered by intraperitoneal (i.p.) injection. Synthroid®, a form of levothyroxine, was obtained from Flint Pharmaceuticals in 100 μg tablets.
A litter mate of mouse A, referred to as mouse B, was administered a protocol as described in Table 2, with administration commencing prior to the onset of any objective symptoms.
A B6SJL-TgN(SOD1-G93A)1Gur strain mouse as described in Example 1 was obtained, referred to as mouse C. Mouse C was administered a protocol as described in Table 3, with administration commencing prior to the onset of any objective symptoms.

[1] = mouse A, Table 1 protocol, thrombopoietin i.p. days 107, 110, 113

thrombopoietin
objective symptoms observed at day 111 (mouse A, symptomatic from day 105, after thrombopoietin 0.5 cc of 1 μg/cc i.p. on days 107 and 110): marked improvement | objective symptoms observed on day 124 (mouse A, Table 1 protocol): increasing front limb weakness | day of death (mouse A, Table 1 protocol (thrombopoietin, thyrotropin releasing hormone, Synthroid) started after symptom onset): 126 days | objective symptoms observed on day 122 (mouse A, Table 1 protocol, Synthroid in drinking water from day 121): marked improvement in front limbs | objective symptoms observed by day 118 (mouse A, Table 1 protocol, after thrombopoietin plus thyrotropin releasing hormone i.p. on day 117): decreased weakness | objective symptoms observed at day 113 [1]: shaking resumed | objective symptoms observed by day 115 [1]: marked hind limb weakness | objective symptoms observed on day 120 (mouse A, Table 1 protocol, thrombopoietin i.p. through day 119): increased mobility | day of death (mouse B, Table 2 protocol): 132 days | delay of onset of objective signs versus litter mate mouse A (mouse B, Table 2 protocol): 16 days | objective symptoms observed at day 129 (mouse B, Table 2 protocol): posterior limb paralysis | day of first objective signs (slight posterior weakness) (mouse B, Table 2 protocol, thrombopoietin i.p. from day 87, Synthroid in drinking water from day 105, started before symptoms): 121 days | day through which no objective signs of illness were observed (mouse C, Table 3 protocol, thrombopoietin i.p. days 80-88, Synthroid in drinking water from day 92, expected onset 91±14 days): > 110 days
